Legend:
Type in all cases: in vivo, human
[1] = test system: central memory T cells; test: Cultured IFN-γ ELISPOT after 10-day in vitro stimulation of PBMC, phase 1/2 NSCLC trial of OSE-2101; design: key to net SFC of vaccine positive CTL responses: —, indicates SFC response did not meet criteria and vaccine response was negative; details: for No. Positive Responses / Mean SFC: 6 NSCLC patients
Description: (§1) Clinical study design. Both trials were designed as phase 1/2, open label, multi-center, single dose, multiple administration studies to evaluate the safety and immunogenicity of the OSE-2101 immunotherapy. Patients were treated with 1 ml OSE-2101 every 3 weeks for a total of six doses. Each dose was administered subcutaneously in the same vicinity in the deltoid or upper thigh region, or at a contralateral site if local side-effects were observed. The study duration for each completed patient was 18 weeks. Clinical responses or patient survival were not measured in either phase 1/2 studies.
(§2) Clinical sample processing. Blood or leukapheresis product was obtained from patients at the pre-treatment, the Week 9 and Week 18 time points, 3 weeks after the third and sixth dose of OSE-2101 respectively. Peripheral blood mononuclear cells (PBMC) were isolated from samples within 24 hours of collection using a FICOLL-PAQUE density gradient and cryopreserved in containers designed to ensure optimal freezing (Mr. Frosty, Nalgene). For use, cells were rapidly thawed at 37° C. then transferred to human AB serum-containing medium for work-up.
(§3) Measurement of central T memory cells responses and T effector memory cells. The CTL responses in 16 total patients (10 colon and six NSCLC) were monitored for CTL responses against each epitope and against the wild-type epitope of epitopes analogs. For each patient, the pre-treatment, Week 9 and Week 18 time points were batch-tested in the same experiment to allow pre- versus post-treatment response comparison in the same experiment. Central T memory cells responses were measured using an IFN-γ enzyme-linked immunospot (cultured ELISPOT) assay following in vitro stimulation of PBMC for 10 days with each vaccine epitope. Briefly, PBMC from each time point were stimulated on day 0 with 10 μg/ml of each epitope individually in replicate in 48-well culture plates (2×10^6 PBMC/well). All cultures were fed with rIL-2 (Endogen, Woburn, Mass.; 10 U/ml final concentration) on days 1, 4 and 7. Ten days after initiation of culture, cells were harvested and tested for activity against specific vaccine peptides and corresponding wild-type peptides of vaccine analogs in the T memory ELISPOT assay. Cells were tested in Millipore IP 96-well plates pre-coated with mouse anti-human IFN-γ antibody (Mabtech USA, Cincinnati, Ohio). Five×10^4 cells and 1.25×10^4 cells from each culture were plated in triplicate wells together with 10^5 irradiated autologous PBMC and 10 μg/ml peptide. As a control, CTL were also tested against an irrelevant HLA-A2.1-binding HBV peptide. After 20 hours incubation, T memory ELISPOT plates were developed by performing sequential incubations with biotinylated anti-human IFN-γ antibody (Mabtech USA), Avidin-Peroxidase Complex (APC, Vector Laboratories, Burlingame, Calif.), and 3-amino-9-ethyl carbazole (AEC) substrate (Sigma Aldrich, St. Louis, Mo.). Spot-forming cells (SFC) were enumerated using a computer-assisted image analysis system (Zeiss KS ELISPOT Reader, Carl Zeiss MicroImaging, Thornwood, N.J.). Data is reported as the net SFC per 5×10^4 cells after subtracting spots induced with the irrelevant HBV peptide.

[2] = test system: central memory T cells; test: Central memory T cell cultured ELISPOT, phase 2 trial in advanced NSCLC
Description: CTL Immune responses measured though cultured Elispot. The immunogenicity was measured in Phase 2 clinical trial on cryopreserved PBMC from each test sample were thawed in 5% human culture medium (RPMI-1640 medium with 25 mM HEPES, supplemented with 5% human AB serum, 4 mM L-glutamine, 0.5 mM sodium pyruvate, 0.1 mM MEM non-essential amino acids, 100 μg/ml streptomycin, and 100 U/ml penicillin) containing 30 μg/ml DNAase. After centrifugation for 5 minutes at 1200 rpm, the cell pellets were resuspended in 5% human culture medium and washed 2 times. For the central Memory T cell cultured ELISPOT assay, 2×10^6/ml PBMC were placed in replicate wells in a 48-well plates and stimulated for 10 days with 10 μg/ml of each peptide. As a positive control, PBMC were also stimulated with a pool of recall viral peptides. Human rIL2 (10 U/ml) was added to the peptide-stimulated cultures at day 1, day 4 and day 7. After 10 days the stimulated cells were harvested and plated at a concentration of 5×10^4/well. Assay wells also received irradiated autologous PBMC (1×10^5/well) and 10 μg/ml peptide, either the vaccine peptide, irrelevant peptide or positive control peptides. Cells stimulated in vitro with each analog epitope were also tested against the corresponding wild-type epitope.
Data analysis and acceptance criteria. Mean and standard deviation (SD) of spots in replicate wells were calculated in all assays by transferring raw ELISPOT data from each experiment to an Excel-based computer program. Positive vaccine-induced T-cell responses were determined according to the criteria described below.
Acceptance Criteria for peptide-Induced specific T-cell response through central memory T cells: The positive criteria for CTL responses used in the phase 2 trial was identical to the criteria in the phase 1/2 trials which was established prospectively after analyzing the variability of pre-treatment responses in patients against each vaccine epitope and the irrelevant HBV control epitope. A positive peptide-induced CTL/T memory response to a given epitope met all of the following conditions: 1) was greater than 5 SFC above the irrelevant epitope response, 2) was greater than the mean SFC of the irrelevant epitope response, plus 2 SD, and 3) was two-fold greater than the SFC response in the pre-vaccination sample from the same patient, plus 2 SD. The inclusion of “plus two standard deviations” was used to accommodate the assay variability and served to increase the criteria stringency.

[3] = test system: central memory T cells; test: Cultured IFN-γ ELISPOT after 10-day in vitro stimulation of PBMC, phase 1/2 colon cancer trial of OSE-2101; design: key to net SFC of vaccine positive CTL responses: —, indicates SFC response did not meet criteria and vaccine response was negative; details: for Mean SFC: 10 colon patients
Description: as §1, §2, §3

## SMPPPGTRV [p53.149M2 A]
[1]; Week 9
  No. Positive Responses: 0
[1]; Week 18
  No. Positive Responses: 0
[1]; NSCLC patient 201, Week 9
  net SFC of vaccine positive CTL responses: —
[1]; NSCLC patient 201, Week 18
  net SFC of vaccine positive CTL responses: —
[1]; NSCLC patient 502, Week 9
  net SFC of vaccine positive CTL responses: —
[1]; NSCLC patient 502, Week 18
  net SFC of vaccine positive CTL responses: —
[1]; NSCLC patient 504, Week 9
  net SFC of vaccine positive CTL responses: —
[1]; NSCLC patient 504, Week 18
  net SFC of vaccine positive CTL responses: —
[1]; NSCLC patient 505, Week 9
  net SFC of vaccine positive CTL responses: —
[1]; NSCLC patient 505, Week 18
  net SFC of vaccine positive CTL responses: —
[1]; NSCLC patient 532, Week 9
  net SFC of vaccine positive CTL responses: —
[1]; NSCLC patient 532, Week 18
  net SFC of vaccine positive CTL responses: —
[1]; NSCLC patient 651, Week 9
  net SFC of vaccine positive CTL responses: —
[1]; NSCLC patient 651, Week 18
  net SFC of vaccine positive CTL responses: —
[2]; phase 2, month 9
  % of patients with positive CTL/central memory T cell response: 0%
  patients with positive CTL/central memory T cell response / patients tested: 0/7
[2]; phase 2, month 12
  % of patients with positive CTL/central memory T cell response: 0%
  patients with positive CTL/central memory T cell response / patients tested: 0/4
[2]; phase 2, week 9
  % of patients with positive CTL/central memory T cell response: 9%
  patients with positive CTL/central memory T cell response / patients tested: 1/11
[2]; phase 2, week 18
  % of patients with positive CTL/central memory T cell response: 0%
  patients with positive CTL/central memory T cell response / patients tested: 0/11
[2]; phase 2, week 30
  % of patients with positive CTL/central memory T cell response: 0%
  patients with positive CTL/central memory T cell response / patients tested: 0/6
[3]; Week 9
  Mean SFC: 18.0 SFC per 50,000 cells
[3]; colon patient 551, Week 9
  net SFC of vaccine positive CTL responses: —
[3]; colon patient 551, Week 18
  net SFC of vaccine positive CTL responses: —
[3]; colon patient 601, Week 9
  net SFC of vaccine positive CTL responses: —
[3]; colon patient 601, Week 18
  net SFC of vaccine positive CTL responses: —
[3]; colon patient 602, Week 9
  net SFC of vaccine positive CTL responses: —
[3]; colon patient 602, Week 18
  net SFC of vaccine positive CTL responses: —
[3]; colon patient 603, Week 9
  net SFC of vaccine positive CTL responses: —
[3]; colon patient 603, Week 18
  net SFC of vaccine positive CTL responses: —
[3]; colon patient 604, Week 9
  net SFC of vaccine positive CTL responses: —
[3]; colon patient 604, Week 18
  net SFC of vaccine positive CTL responses: —
[3]; colon patient 605, Week 9
  net SFC of vaccine positive CTL responses: —
[3]; colon patient 605, Week 18
  net SFC of vaccine positive CTL responses: —
[3]; colon patient 606, Week 9
  net SFC of vaccine positive CTL responses: —
[3]; colon patient 606, Week 18
  net SFC of vaccine positive CTL responses: —
[3]; colon patient 607, Week 9
  net SFC of vaccine positive CTL responses: —
[3]; colon patient 607, Week 18
  net SFC of vaccine positive CTL responses: —
[3]; colon patient 608, Week 9
  net SFC of vaccine positive CTL responses: 18.0 SFC per 50,000 cells
[3]; colon patient 608, Week 18
  net SFC of vaccine positive CTL responses: —
[3]; colon patient 609, Week 9
  net SFC of vaccine positive CTL responses: —
[3]; colon patient 609, Week 18
  net SFC of vaccine positive CTL responses: —

## IMIGHLVGV [CEA.691H5 A]
[1]; Week 9
  Mean SFC: 84.2 SFC per 50,000 cells
  No. Positive Responses: 2
[1]; Week 18
  Mean SFC: 132.7 SFC per 50,000 cells
  No. Positive Responses: 3
[1]; NSCLC patient 201, Week 9
  net SFC of vaccine positive CTL responses: —
[1]; NSCLC patient 201, Week 18
  net SFC of vaccine positive CTL responses: —
[1]; NSCLC patient 502, Week 9
  net SFC of vaccine positive CTL responses: —
[1]; NSCLC patient 502, Week 18
  net SFC of vaccine positive CTL responses: —
[1]; NSCLC patient 504, Week 9
  net SFC of vaccine positive CTL responses: 42.7 SFC per 50,000 cells
[1]; NSCLC patient 504, Week 18
  net SFC of vaccine positive CTL responses: 284.0 SFC per 50,000 cells
[1]; NSCLC patient 505, Week 9
  net SFC of vaccine positive CTL responses: —
[1]; NSCLC patient 505, Week 18
  net SFC of vaccine positive CTL responses: 45.3 SFC per 50,000 cells
[1]; NSCLC patient 532, Week 9
  net SFC of vaccine positive CTL responses: 125.7 SFC per 50,000 cells
[1]; NSCLC patient 532, Week 18
  net SFC of vaccine positive CTL responses: —
[1]; NSCLC patient 651, Week 9
  net SFC of vaccine positive CTL responses: —
[1]; NSCLC patient 651, Week 18
  net SFC of vaccine positive CTL responses: 68.7 SFC per 50,000 cells
[2]; phase 2, month 9
  % of patients with positive CTL/central memory T cell response: 43%
  patients with positive CTL/central memory T cell response / patients tested: 3/7
[2]; phase 2, month 12
  % of patients with positive CTL/central memory T cell response: 50%
  patients with positive CTL/central memory T cell response / patients tested: 2/4
[2]; phase 2, week 9
  % of patients with positive CTL/central memory T cell response: 64%
  patients with positive CTL/central memory T cell response / patients tested: 7/11
[2]; phase 2, week 18
  % of patients with positive CTL/central memory T cell response: 91%
  patients with positive CTL/central memory T cell response / patients tested: 10/11
[2]; phase 2, week 30
  % of patients with positive CTL/central memory T cell response: 33%
  patients with positive CTL/central memory T cell response / patients tested: 2/6
[3]; Week 9
  Mean SFC: 178.0 SFC per 50,000 cells
[3]; Week 18
  Mean SFC: 300.6 SFC per 50,000 cells
[3]; colon patient 551, Week 9
  net SFC of vaccine positive CTL responses: 92.7 SFC per 50,000 cells
[3]; colon patient 551, Week 18
  net SFC of vaccine positive CTL responses: 68.7 SFC per 50,000 cells
[3]; colon patient 601, Week 9
  net SFC of vaccine positive CTL responses: 417.3 SFC per 50,000 cells
[3]; colon patient 601, Week 18
  net SFC of vaccine positive CTL responses: 133.7 SFC per 50,000 cells
[3]; colon patient 602, Week 9
  net SFC of vaccine positive CTL responses: —
[3]; colon patient 602, Week 18
  net SFC of vaccine positive CTL responses: —
[3]; colon patient 603, Week 9
  net SFC of vaccine positive CTL responses: 32.7 SFC per 50,000 cells
[3]; colon patient 603, Week 18
  net SFC of vaccine positive CTL responses: 8.0 SFC per 50,000 cells
[3]; colon patient 604, Week 9
  net SFC of vaccine positive CTL responses: 109.3 SFC per 50,000 cells
[3]; colon patient 604, Week 18
  net SFC of vaccine positive CTL responses: 397.3 SFC per 50,000 cells
[3]; colon patient 605, Week 9
  net SFC of vaccine positive CTL responses: 65.7 SFC per 50,000 cells
[3]; colon patient 605, Week 18
  net SFC of vaccine positive CTL responses: —
[3]; colon patient 606, Week 9
  net SFC of vaccine positive CTL responses: 24.3 SFC per 50,000 cells
[3]; colon patient 606, Week 18
  net SFC of vaccine positive CTL responses: 45.0 SFC per 50,000 cells
[3]; colon patient 607, Week 9
  net SFC of vaccine positive CTL responses: 593.3 SFC per 50,000 cells
[3]; colon patient 607, Week 18
  net SFC of vaccine positive CTL responses: 1648.0 SFC per 50,000 cells
[3]; colon patient 608, Week 9
  net SFC of vaccine positive CTL responses: —
[3]; colon patient 608, Week 18
  net SFC of vaccine positive CTL responses: 18.0 SFC per 50,000 cells
[3]; colon patient 609, Week 9
  net SFC of vaccine positive CTL responses: 89.0 SFC per 50,000 cells
[3]; colon patient 609, Week 18
  net SFC of vaccine positive CTL responses: 86.0 SFC per 50,000 cells

— patent publication US11191820B2, “Method for inducing early T memory response with short peptides anti-tumor vaccine” (OSE IMMUNOTHERAPEUTICS, priority 2015, dated 2021)
